Read-outs that look alike come from different tables or passages of the source. Square brackets hold non-standard residues; d marks the D form. Peptide text beside a SMILES is read from it. * marks the point of attachment. Ala(6-iPr-benzothiazol-2-yl) = CC(C)c1ccc2nc(C[C@H](N)C(=O)O)sc2c1; Chg = N[C@H](C(=O)O)C1CCCCC1; Abu = CC[C@H](N)C(=O)O; Propionyl = CCC(=O)*
Biological target: DCN1 (Homo sapiens (Human), UniProt Q96GG9)
Experiment: Competitive FP binding assay
Method: Competitive FP Binding Assay
The Fluorescence Polarization (FP) competitive binding assays were performed to accurately determine the binding affinities of our DCN1 inhibitors. […] Serial dilutions of proteins were mixed with 46 to a final volume of 200 μl in the assay buffer (100 mM phosphate buffer, pH=6.5, with 0.02% Tween-20 and 2% DMSO). Final probe concentration was 5 nM for both assays. Plates were incubated at room temperature for 30 minutes with gentle shaking to assure equilibrium.
Pure proteins were derived from the same expression and purification protocols. Plasmids were transformed into Rosetta2 cells, the cells were grown in Terrific Broth at 37° C. to an O.D.600>1.0 and induced with 0.4 mM Isopropyl (3-D-1-thiogalactopyranoside overnight at 20° C. The pelleted cells were resuspended in lysis buffer containing 25 mM Tris-HCl, pH 7.5, 200 mM NaCl and protease inhibitors, sonicated and centrifuged at 34,000×g for 45 minutes to remove debris. Cleared lysate was incubated with Ni-NTA resin (Qiagen) prewashed with lysis buffer, for 1 hr at 4° C. The matrix was loaded into a column then washed with 25 mM Tris-HCl, pH 7.5, 200 mM NaCl and 10 mM imidazole. Protein was eluted with 25 mM Tris-HCl, pH 7.5, 200 mM NaCl and 300 mM imidazole, concentrated and applied to a Superdex 75 (GE Healthcare) column pre-equilibrated with 25 mM Tris pH 7.5, 200 mM NaCl and 1 mM DTT. For DCN2-5, the N-terminal His6 tag was removed prior to gel filtration. Tag removal was achieved through incubation with TEV protease during overnight dialysis against 25 mM Tris pH 7.5, 200 mM NaCl and 1 mM DTT and a second Ni-NTA column. DCN2-5 proteins were stored at −80° C. in 1 mg/mL fractions containing 5% glycerol. The uncleaved DCN1 protein was stored at −80° C. without glycerol.

[1] = read-out: Binding affinity to DCN1 (IC50 (nM))
[2] = bounds given in μM, read-out: Binding affinity to DCN1 (IC50)

Sequence of DCN1 (Q96GG9 58-259): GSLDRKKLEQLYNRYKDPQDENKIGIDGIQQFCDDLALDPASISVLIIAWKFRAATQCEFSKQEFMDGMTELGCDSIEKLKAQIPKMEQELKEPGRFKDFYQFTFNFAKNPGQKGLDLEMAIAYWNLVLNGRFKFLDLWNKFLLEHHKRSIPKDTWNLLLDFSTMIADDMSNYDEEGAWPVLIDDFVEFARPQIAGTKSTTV

IC50 [1] | IC50 [2] | SMILES
139 nM |  | CCC(=O)N[C@@H](Cc1nc(C)c(-c2cccc(Cl)c2)s1)C(=O)N[C@H](C(=O)N[C@@H](CCCCN)C(=O)N[C@@H]1CCOc2ccccc21)C1CCOCC1 [Example 207]
 | > 10000 nM | NCCNC(=O)[C@H](Cc1nc2ccc(Cl)cc2s1)NC(=O)CCOc1ccccc1 [Example 237]
71.1 nM |  | CCC(=O)N[C@@H](Cc1nc2ccc(CC)cc2o1)C(=O)N[C@H](C(=O)N[C@@H](CCCCN)C(=O)N[C@@H]1CCOc2ccccc21)C1CCOCC1 [Example 196]
 | > 10000 nM | CCC(=O)N[C@@H](Cc1nc(C)c(-c2ccccc2Cl)s1)C(=O)N[C@H](CN)Cc1ccccc1 [Example 104]
913 nM |  | CCC(=O)N[C@@H](Cc1nc2ccc(Cl)cc2s1)C(=O)N[C@H](C(=O)N[C@@H](CCCCN)C(=O)NCc1ccccn1)C1CCOCC1 [Example 241]
 | > 10000 nM | CCC(=O)N[C@@H](Cc1nc2ccc(Cl)cc2s1)C(=O)N[C@@H](C[C@H]1CC[C@H](CNC(=O)COCCOCCOCCNC(=O)CCCC[C@@H]2SC[C@@H]3NC(=O)N[C@@H]32)CC1)C(=O)N[C@@H](CCCCN(C)C)C(=O)N[C@@H]1CCOc2ccccc21 [DI-427biotin (NC)]
 | > 10000 nM | CCC(=O)N[C@@H](Cc1nc2ccc(Cl)cc2s1)C(=O)N[C@@H](CN)Cc1ccccc1 (stereo in doubt) [Example 88]
 | > 10000 nM | CCC(=O)N[C@@H](Cc1nc(C)c(-c2cccnc2)s1)C(=O)N[C@H](CN)Cc1ccccc1 [Example 229]
 | > 1000 nM | CCC(=O)N[C@H](Cc1nc2ccc(Cl)cc2s1)C(=O)N[C@H](C(=O)N[C@@H](CCCCN)C(=O)N[C@@H]1CNCc2ccccc21)C1CCOCC1 [Example 44]
257 nM |  | CCC(=O)N[C@@H](Cc1nc2ccc(C(C)C)cc2s1)C(=O)N[C@H](CNC(=O)c1c[nH]cn1)C1CCCCC1 [Example 67]
187 nM |  | CCC(=O)N[C@@H](Cc1nc2ccc(C)cc2s1)C(=O)N[C@H](C(=O)N[C@@H](CC1CCNCC1)C(=O)N[C@@H]1CCOc2ccccc21)C1CCOCC1 [Example 191]
596 nM |  | CCC(=O)N[C@@H](Cc1nc2ccc(C)cc2s1)C(=O)N[C@@H](CC1CCNCC1)C(=O)N[C@@H](CCCCN)C(=O)N[C@@H]1CCOc2ccccc21 [Example 178]
1200 nM |  | CCC(=O)N[C@H](CNC(=O)Cc1ccccc1)Cc1nc2ccc(Cl)cc2s1 [Example 253]
42.9 nM |  | CCC(=O)N[C@@H](Cc1nc2ccc(C(C)C)cc2s1)C(=O)N[C@H](C(=O)N[C@@H](CCCCN)C(=O)N[C@@H]1CCOc2ccccc21)C1CCOCC1 [Example 206]
222 nM |  | CCC(=O)N[C@@H](Cc1nc2ccc(Cl)cc2s1)C(=O)N[C@H](C(=O)N[C@@H](CC1CCNCC1)C(=O)N[C@@H]1CCOc2ccccc21)C1CCOCC1 [Example 41]
376 nM |  | CCC(=O)N[C@@H](Cc1nc2ccccc2s1)C(=O)N[C@H](C(=O)N[C@@H](CCCCN)C(=O)NC(c1ccccc1)c1ccccc1)[C@@H](C)CC [Example 152]
2390 nM |  | CCC(=O)N[C@H](CNC(=O)C1(N)CCCCCC1)Cc1nc2ccc(C(C)C)cc2s1 [Example 115]
1560 nM |  | CCC(=O)N[C@@H](Cc1nc2ccc(Cl)cc2s1)C(=O)N[C@H](CN)C1CCOCC1 [Example 219]
79 nM |  | CCC(=O)N[C@@H](Cc1nc2ccc(CC)cc2s1)C(=O)N[C@H](C(=O)N[C@@H](CCCCN)C(=O)N[C@@H]1CNCc2ccccc21)C1CCCC1 [Example 177]
 | > 10000 nM | CCC(=O)N[C@H](CNC(=O)C1(N)CCC(C)(C)CC1)Cc1nc2ccc(C(C)C)cc2s1 [Example 269]
984 nM |  | CCC(=O)N[C@@H](Cc1nc(C)c(-c2cccc(Br)c2)s1)C(=O)N[C@H](CN)Cc1ccccc1 [Example 232]
171 nM |  | CCC(=O)N[C@@H](Cc1nc2ccc(CC)cc2s1)C(=O)N[C@H](C(=O)N[C@@H](CC1CCN(C)CC1)C(=O)N[C@@H]1CCOc2ccccc21)C1CCOCC1 [Example 193]
 | > 10000 nM | CCC(=O)N[C@@H](Cc1nc2ccc(Cl)cc2s1)C(=O)N[C@H](CN)Cc1ccccc1 (stereo in doubt) [Example 87]

IC50 [1] | IC50 [2] | SMILES
 | > 10000 nM | CCC(=O)N[C@@H](Cc1ccccn1)C(=O)N[C@H](C(=O)N[C@@H](CCCCN)C(=O)NC(c1ccccc1)c1ccccc1)[C@@H](C)CC [Example 132]
189 nM |  | CCC(=O)N[C@@H](Cc1nc2ccc(C(C)C)cc2s1)C(=O)N[C@H](CNc1ccncn1)C1CCCCC1 [Example 78]
 | > 10000 nM | CC[C@H](C)[C@@H](CN)NC(=O)[C@@H](N)Cc1nc2ccc(C(C)C)cc2s1 [Example 49, (S)-2-amino-N-((2S,3S)-1-amino-3-methylpentan-2-yl)-3-(6-isopropylbenzo[d]thiazol-2-yl)propanamide]
103 nM |  | CCC(=O)N[C@@H](Cc1nc2ccc(Cl)cc2s1)C(=O)N[C@H](C(=O)N[C@@H](CCCCN)C(=O)N[C@@H]1CCOc2ccccc21)C1CCCC1 [Example 33]
273 nM |  | CCC(=O)N[C@@H](Cc1ccc2ccccc2c1)C(=O)N[C@H](C(=O)N[C@@H](CCCCNC1CCN(C)CC1)C(=O)NC(c1ccc(F)cc1)c1ccc(F)cc1)C1CCCC1 [Example 144]
797 nM |  | CCC(=O)N[C@@H](Cc1nc2ccc(Cl)cc2s1)C(=O)N[C@H](C(=O)N[C@@H](CCCCN)C(=O)N[C@H]1CNCc2ccccc21)C1CCCC1 [Example 162]
477 nM |  | CCC(=O)N[C@H](CNC(=O)C1(N)CCCCC1)Cc1nc2ccc(Cl)cc2s1 [Example 119]
37.4 nM |  | CCC(=O)N[C@@H](Cc1nc2ccc(C(C)C)cc2s1)C(=O)N[C@@H](CC)C(=O)N[C@@H](CCCCN)C(=O)N[C@@H](CC(C)C)C(N)=O [Example 281] (Propionyl-[Ala(6-iPr-benzothiazol-2-yl)][Abu]KL-NH2)
1840 nM |  | CCC(=O)N[C@H](CNC(=O)c1ccccc1)Cc1nc2ccc(Cl)cc2s1 [Example 252]
2200 nM |  | CCC(=O)N[C@H](CNC(=O)C1(N)CCCCCCC1)Cc1nc2ccc(C(C)C)cc2s1 [Example 116]
171 nM |  | CCC(=O)N[C@@H](Cc1nc2ccc(CC)cc2s1)C(=O)N[C@H](C(=O)N[C@@H](CC1CCNCC1)C(=O)N[C@@H]1CCOc2ccccc21)C1CCOCC1 [Example 192]
66.6 nM |  | CCC(=O)N[C@@H](Cc1nc2ccc(C(C)C)cc2s1)C(=O)N[C@H](CNC(=O)C1CNC1)C1CCCCC1 [Example 68]
746 ± 72 nM |  | CCC(=O)N[C@@H](Cc1nc2ccc(Cl)cc2s1)C(=O)N[C@H](CN)[C@@H](C)CC [Example 213]
58.3 nM |  | CCC(=O)N[C@@H](Cc1nc2ccc(C(C)C)cc2s1)C(=O)N[C@H](C(=O)N[C@@H](CCCCN)C(=O)N[C@@H](CC(C)C)C(N)=O)C1CCCCC1 [Example 286] (Propionyl-[Ala(6-iPr-benzothiazol-2-yl)][Chg]KL-NH2)
 | > 10000 nM | CCC(=O)N[C@@H](Cc1nc(C)c(-c2ccccn2)s1)C(=O)N[C@H](CN)Cc1ccccc1 [Example 228]
413 nM |  | CCC(=O)N[C@@H](Cc1nc2ccc(F)cc2s1)C(=O)N[C@H](C(=O)N[C@@H](CCCCN)C(=O)NC(c1ccccc1)c1ccccc1)C1CCCC1 [Example 28]
299 nM |  | CCC(=O)N[C@@H](Cc1nc2ccc(C(C)C)cc2s1)C(=O)N[C@H](CNC(=O)c1cn(C)cn1)C1CCCCC1 [Example 66]
 | > 10000 nM | CC(C)CC(C)C(=O)N[C@@H](Cc1nc2ccc(C(C)C)cc2s1)C(=O)NCCN (stereo partly shown) [97 & 98]
121 nM |  | CCC(=O)N[C@@H](Cc1nc2ccc(Cl)cc2s1)C(=O)N[C@H](C(=O)N[C@@H](CCCCN)C(=O)N[C@@H]1CCOc2cccc(Cl)c21)C1CCCC1 [Example 172]
981 nM |  | CCC(=O)N[C@@H](Cc1nc2ccccc2o1)C(=O)N[C@H](C(=O)N[C@@H](CCCCN)C(=O)NC(c1ccccc1)c1ccccc1)[C@@H](C)CC [Example 154]
189 nM |  | CCC(=O)N[C@@H](Cc1nc2ccc(Cl)cc2s1)C(=O)N[C@@H](C[C@H]1CC[C@H](CNC(=O)COCCOCCOCCNC(=O)CCCC[C@@H]2SC[C@@H]3NC(=O)N[C@@H]32)CC1)C(=O)N[C@@H](CCCCN(C)C)C(=O)N[C@@H]1CCOc2ccccc21 [DI-427biotin]
 | > 10000 nM | CCC(=O)N[C@@H](Cc1nc(C)c(C(C)C)s1)C(=O)N[C@H](CN)Cc1ccccc1 [Example 99]

SMILES | IC50 [1] | IC50 [2]
CCC(=O)N[C@@H](Cc1ccc2ccccc2c1)C(=O)N[C@@H](CC1CCCCC1)C(=O)N[C@@H](CCCCN)C(=O)NC(c1ccccc1)c1ccccc1 [Example 21] | 290 nM | 
CCC(=O)N[C@@H](Cc1ccc2ccccc2c1)C(=O)N[C@H](C(=O)N[C@@H](CCCCN)C(=O)NC(c1ccccc1)c1ccccc1)C1CCCCC1 [Example 20] | 341 nM | 
CCC(=O)N[C@@H](Cc1nc2ccc(C(C)C)cc2s1)C(=O)N[C@H](CNC(=O)C12CCN(CC1)CC2)C1CCCCC1 [Example 64] | 36 nM | 
CCC(=O)N[C@@H](Cc1ccc2ccccc2c1)C(=O)N[C@@H](CC(F)(F)F)C(=O)N[C@@H](CCCCN)C(=O)NC(c1ccccc1)c1ccccc1 [Example 23] |  | > 1000 nM

Reference: patent US12012467B2, “Small molecule DCN1 inhibitors and therapeutic methods using the same” (THE REGENTS OF THE UNIVERSITY OF MICHIGAN, priority 2017, dated 2024)
